One data set deals with mice. As to conditions: mice given 800 mg/kg; cited from earlier work.
Data set [1] has as its system sleeplessness. In words: Example 1: melatonin capsules for subjects having difficulty falling asleep at normal bedtime. In kind it is in vivo, human. As to conditions: 1.5 mg capsules after one hour of trying to fall asleep.
The conditions of data set [2]: 2-100 mg doses, man; cited from earlier work.
The subject of data set [3] is sleeplessness. Briefly: Example 2: melatonin capsules for subjects who awake midway during normal sleep period. Format: in vivo, human. As to conditions: 1.5 mg capsules after 15 minutes of trying to fall back asleep. From the text:
Subjects are those who awake at about midway during their normal sleep period and once awake have trouble falling back asleep.

On to `COc1ccc2[nH]cc(CCNC(C)=O)c2c1` [Melatonin, N-acetyl-5-methyoxytryptamine], for which the death entry with mice is “failed to produce death”. For the same compound, in the data set on sleeplessness [1], the sleep maintenance result is “sleep through the night”; the state on awakening result is reported as “alert, without any decrement in faculties”; the “time to fall asleep” value was at most 20 min. Also, the biological half-life in data set [2] is 32-48 minutes. For the same compound, in the data set on sleeplessness [3], the sleep maintenance entry is reported as “sleep through the remainder of the night”; the state on awakening entry was “refreshed, and not sleepy or drowsy”; the “time to fall asleep” value is at most 20 min; the time until awakening lay within 3 to 4 h.

The record behind these values is patent US6703412B1 (priority 2002, dated 2004).
